Assay results from patent publication US10947196B2, “Beta adrenergic agonist and methods of using the same” (CURASEN THERAPEUTICS, INC., priority 2019, dated 2021).
Where two headings read alike, the source gives them in different places.

How the values were obtained:
Format in all cases: cell-based
β1-adrenergic receptor = β1-adrenergic receptor (Homo sapiens (Human), UniProt P08588); test: cAMP Gs dynamic HTRF assay, β1 expressing CHO cells; details: B1-AR
Outline: (§1)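 Intracellular cAMP quantified by Eu-donor/d2-acceptor HTRF after 30 min compound exposure at 37° C in stimulation buffer with IBMX. Concentrations ran 10 μM top, 5-fold steps, 10 points. Cell lines: 1321N1 astrocytoma and CHO expressing β1 or β2; EC50 via four-parameter fit, relative efficacy against isoproterenol.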

β2 adrenergic receptor = β2 adrenergic receptor (Homo sapiens (Human), UniProt P07550); test: cAMP Gs dynamic HTRF assay, β2 expressing CHO cells; details: B2-AR
Outline: as §1

[1] = target: β2 adrenergic receptors in human astrocytoma cells (1321N1) (Homo sapiens (Human), UniProt P07550); test: cAMP HTRF assay in human astrocytoma cells (1321N1); details: Endogenous receptor, 1321N1 cells
Protocol: cAMP homogeneous time-resolved fluorescence (HTRF). Compound efficacy was determined using the cAMP Gs dynamic HTRF assay (Cisbio, catalog #62AM4PEC) largely following the manufacturer's instructions, also detailed below.
Compound preparation. […] Standard serial dilution curves were 10-point, 5-fold dilutions starting from a highest concentration of 10 μM. […] Assay plates were centrifuged at 500×g for 10 seconds. Compounds and IBMX were prepared at 2× final dose to compensate for addition of cells.
Cell preparation. 1× stimulation buffer, washing PBS (Dulbecco's phosphate-buffered saline, −Mg −Ca; Caisson Labs, catalog #PBL01), assay PBS (Dulbecco's phosphate-buffered saline, +Mg, +Ca; Caisson Labs, catalog #PBL02) and Versene (0.02% EDTA disodium salt solution in PBS without calcium or magnesium; Caisson Labs, catalog #EDL01) were pre-warmed to 37° C. Cells expressing beta-adrenergic receptor were washed in washing PBS to remove growth medium and then released from the surface by incubating with Versene for 5-10 minutes at 37° C. Cells were harvested using assay PBS, counted manually by hemocytometer or by an automated cell counter, pelleted by centrifugation (200×g, 5 minutes) and resuspended in 37° C. 1× stimulation buffer to a final density of 1.5×10^6 cells/mL. 5 μL of the suspended cell solution (7500 cell total) were added to all wells of the 384 well assay plate, the assay plate was covered with an Axygen® plate seal (Corning PCR-SP) and incubated in a humidified 37° C. environment supplemented with 5% CO2 for 30 minutes.
HTRF reagent addition, reading and data analysis. After 30 minutes of cell stimulation with test compound, the assay plates were centrifuged at 500×g for 10 seconds, and incubation was stopped with the addition of 5 μL cAMP-D2 acceptor, diluted 1:21 in detection and lysis buffer 2 (Cisbio 62CL2FDF) was added to all cells. Subsequently, 5 μL Anti-cAMP-Eu Donor, diluted 1:21 in detection and lysis buffer 2, was added to cells. Plates were sealed and reactions gently ‘vortexed’ at 900 rpm on a Heidolph Titramax 1000 for at least 30 minutes at room temperature. Plates were centrifuged again at 500×g for 10 seconds, and HTRF was measured using a Tecan Spark plate reader at 50 flashes per well. […] Potency estimates (EC50) were derived from the four-parameter nonlinear regression of the concentration-effect curve and an estimate of relative efficacy was determined by comparing the magnitude of the test compound HTRF signal window (min−max dose) with the signal window of the full agonist control, isoproterenol.

B3-AR = B3-AR (Homo sapiens (Human), UniProt P13945); test: cAMP potency assay, B3-AR expressing CHO-K1 cells
[2] = CHO-K1 (HitHunter), read-out: Average pEC50 [Receptor subtype: B1-AR, Cell type: CHO-K1 (HitHunter)] (converted)
[3] = CHO-K cells, read-out: Average EC50 [Receptor subtype: B1-AR, Cell type: CHO-K]
[4] = CHO-K cells, read-out: Average EC50 [Receptor subtype: B2-AR, Cell type: CHO-K]
[5] = read-out: Average EC50 [Receptor subtype: Endogenous, Cell type: 1321N1]
[6] = read-out: Average EC50 [Receptor subtype: B3-AR, Cell type: CHO-K1]
[7] = CHO-K1 (HitHunter), read-out: Average pEC50 [Receptor subtype: B2-AR, Cell type: CHO-K1 (HitHunter)] (converted)
[8] = read-out: Average pEC50 [Receptor subtype: Endogenous, Cell type: 1321N1] (converted)
[9] = read-out: Average pEC50 [Receptor subtype: B3-AR, Cell type: CHO-K1] (converted)

Sequence of B3-AR (P13945 whole entry, species assumed): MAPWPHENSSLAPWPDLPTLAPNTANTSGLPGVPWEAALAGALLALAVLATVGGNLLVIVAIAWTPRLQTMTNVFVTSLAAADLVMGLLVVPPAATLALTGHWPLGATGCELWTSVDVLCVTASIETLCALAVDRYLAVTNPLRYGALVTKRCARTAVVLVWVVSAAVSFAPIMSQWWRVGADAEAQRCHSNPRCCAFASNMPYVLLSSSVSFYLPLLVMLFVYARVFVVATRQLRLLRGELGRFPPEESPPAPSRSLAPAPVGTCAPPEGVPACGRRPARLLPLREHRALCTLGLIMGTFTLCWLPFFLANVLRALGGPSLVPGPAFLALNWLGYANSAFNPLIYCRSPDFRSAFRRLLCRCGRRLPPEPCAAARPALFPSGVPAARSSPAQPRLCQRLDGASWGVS
Sequence of β1-adrenergic receptor (P08588 whole entry, species assumed): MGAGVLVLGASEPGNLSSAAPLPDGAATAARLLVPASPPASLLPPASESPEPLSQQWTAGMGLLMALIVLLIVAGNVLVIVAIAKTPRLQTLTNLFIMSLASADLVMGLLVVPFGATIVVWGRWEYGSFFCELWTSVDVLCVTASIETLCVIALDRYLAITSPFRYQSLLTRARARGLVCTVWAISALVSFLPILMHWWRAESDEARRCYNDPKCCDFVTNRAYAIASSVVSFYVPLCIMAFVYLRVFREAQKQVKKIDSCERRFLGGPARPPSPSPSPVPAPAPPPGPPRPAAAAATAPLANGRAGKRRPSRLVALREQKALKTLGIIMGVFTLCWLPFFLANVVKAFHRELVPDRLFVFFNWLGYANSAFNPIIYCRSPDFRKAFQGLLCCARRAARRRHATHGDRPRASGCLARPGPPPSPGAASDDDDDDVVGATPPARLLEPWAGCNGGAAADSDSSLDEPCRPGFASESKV
Sequence of β2 adrenergic receptors in human astrocytoma cells (1321N1) (P07550 whole entry): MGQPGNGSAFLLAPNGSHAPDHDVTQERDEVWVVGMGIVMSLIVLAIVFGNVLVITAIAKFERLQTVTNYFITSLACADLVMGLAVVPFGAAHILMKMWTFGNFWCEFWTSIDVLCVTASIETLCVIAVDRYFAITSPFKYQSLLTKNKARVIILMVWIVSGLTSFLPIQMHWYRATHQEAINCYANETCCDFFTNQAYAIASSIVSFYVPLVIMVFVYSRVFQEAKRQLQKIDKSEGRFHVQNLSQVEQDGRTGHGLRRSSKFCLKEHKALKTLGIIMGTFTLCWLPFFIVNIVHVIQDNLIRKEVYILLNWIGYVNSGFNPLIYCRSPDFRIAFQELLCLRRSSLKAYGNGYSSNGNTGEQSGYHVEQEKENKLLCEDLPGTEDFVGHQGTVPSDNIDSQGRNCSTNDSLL
Sequence of β2 adrenergic receptor (P07550 whole entry, species assumed): as the sequence (P07550 whole entry) above

Row | Average pEC50 [Receptor subtype: B1-AR; Cell type: CHO-K1 (HitHunter)] (β1-adrenergic receptor; CHO-K1 (HitHunter)) | Structure (SMILES) | EC50 (β1-adrenergic receptor; [2]) [nM] | EC50 (β1-adrenergic receptor; [3]) [nM] | EC50 (β2 adrenergic receptor; [4]) [nM] | EC50 [1, 5] [nM] | EC50 (B3-AR; [6]) [nM] | EC50 (β2 adrenergic receptor; [7]) [nM] | EC50 [1, 8] [nM] | EC50 (B3-AR; [9]) [nM] | Average pEC50 [Receptor subtype: Endogenous; Cell type: 1321N1] [1] | Average pEC50 [Receptor subtype: B3-AR; Cell type: CHO-K1] (B3-AR)
1 |  | [2H]C([2H])([2H])C(NCC(O)c1cccc(C(F)(F)F)n1)(C([2H])([2H])[2H])C([2H])([2H])[2H] (centres unmarked) [Compound 03-49] | > 1000 | > 1000 | 100 to 1000 | > 1000 | > 1000 |  |  |  |  | 
2 |  | CCc1ncccc1[C@@H](O)CNC(C)(C)C [Compound 03-52] | > 1000 |  |  |  |  | 100 to 1000 | > 1000 | > 1000 |  | 
3 | D (D < 6) | CC(C)(C)NC[C@H](O)c1cccnc1C1CCCC1 [Compound 03-53] |  | > 1000 | 10 to 100 | 100 to 1000 | > 1000 | 10 to 100 |  | > 1000 | C (C = <7-6) | 
4 | C (C = <7-6) | CC(C)Oc1ncccc1[C@@H](O)CNC(C)(C)C [Compound 03-57] |  | 100 to 1000 | 10 to 100 | 100 to 1000 | > 1000 | 10 to 100 |  | > 1000 | C (C = <7-6) | 
5 |  | CCOc1ncccc1[C@@H](O)CNC(C)(C)C [Compound 03-58] | 10 to 100 | 10 to 100 | 10 to 100 | 10 to 100 | > 1000 | 10 to 100 |  |  | B (B = 8-7) | D (D < 6)
6 |  | COc1ncccc1[C@@H](O)CNC(C)(C)C [Compound 03-59] | < 10 | < 10 | < 10 | < 10 | 100 to 1000 | < 10 |  |  | A (A > 8) | C (C = <7-6)
7 |  | CC(C)(C)NC[C@H](O)c1ccc(C(F)(F)F)cn1 [Compound 03-126] | 10 to 100 | 10 to 100 | 10 to 100 |  |  | 10 to 100 | 10 to 100 | 100 to 1000 |  | 
8 |  | Cc1ccc([C@@H](O)CNC(C)(C)C)nc1 [Compound 03-127] | 10 to 100 | 10 to 100 | 10 to 100 |  |  | 10 to 100 | 10 to 100 | > 1000 |  | 
9 |  | CNc1cccc([C@@H](O)CNC(C)(C)C)n1 [Compound 03-141] | 10 to 100 | 100 to 1000 | < 10 |  |  | < 10 | 10 to 100 | > 1000 |  | 
10 | A (A > 8) | CC(C)(C)NC[C@H](O)c1cccc(C2CCC2)n1 [Compound 03-161] |  | < 10 | < 10 |  |  | < 10 | < 10 | 100 to 1000 |  | 
11 |  | Cc1ccc([C@@H](O)CNC(C)(C)C)nc1C(F)(F)F [Compound 03-167] | < 10 | < 10 | < 10 |  |  | < 10 | < 10 | > 1000 |  | 
12 |  | Cc1ccc([C@H](O)CNC(C)(C)C)nc1C(F)(F)F [Compound 03-168] | 10 to 100 | 10 to 100 | 10 to 100 |  |  | 10 to 100 | 100 to 1000 | 100 to 1000 |  | 
13 | B (B = 8-7) | CC(C)(C)NC[C@H](O)c1cccc(C(C)(F)F)n1 [Compound 03-169] |  | 10 to 100 | < 10 |  |  | < 10 | 100 to 1000 | > 1000 |  | 
14 |  | CC(C)(C)NC[C@H](O)c1cccc(N2CCCC2)n1 [Compound 03-173] | 100 to 1000 | 100 to 1000 | < 10 |  |  | < 10 | < 10 | > 1000 |  | 
15 |  | CC(C)c1cccc([C@@H](O)CNC(C)(C)C)n1 [Compound 03-175] | 10 to 100 | 10 to 100 | < 10 |  |  | < 10 | < 10 | > 1000 |  | 
